Test results published in ChEMBL document CHEMBL1143055, “2,3,5-Substituted tetrahydrofurans as cancer chemopreventives. Part 1: synthesis and anti-cancer activities of 5-hydroxymethyl-2,3-diaryl-tetrahydro-furan-3-ols” (2007).

Tests used:
UACC-257 = test: Antitumor activity against human UACC257 cells; type: functional
A498 = test: Antitumor activity against human A498 cells; type: functional
RXF 393 = test: Antitumor activity against human RXF393 cells; type: functional
[1] = Antitumor activity against human HS 578T cells; type: functional
NCI-H23 = test: Antitumor activity against human NCI-H23 cells; type: functional
LOX IMVI = test: Antitumor activity against human LOX IMVI cells; type: functional
SK-MEL-28 = test: Antitumor activity against human SK-MEL-28 cells; type: functional
SF-295 = test: Antitumor activity against human SF295 cells; type: functional
KM12 = test: Antitumor activity against human KM12 cells; type: functional
NCI-H460 = test: Antitumor activity against human NCI-H460 cells; type: functional
U-251 = test: Antitumor activity against human U251 cells; type: functional
MCF7 = test: Antitumor activity against human MCF7 cells; type: functional
OVCAR-3 = test: Antitumor activity against human OVCAR-3 cells; type: functional
ACHN = test: Antitumor activity against human ACHN cells; type: functional
TK-10 = test: Antitumor activity against human TK10 cells; type: functional
HOP-92 = test: Antitumor activity against human HOP92 cells; type: functional
A549 = test: Antitumor activity against human A549 cells; type: functional
SF-539 = test: Antitumor activity against human SF539 cells; type: functional
HT-29 = test: Antitumor activity against human HT29 cells; type: functional
SNB-19 = test: Antitumor activity against human SNB19 cells; type: functional
BT-549 = test: Antitumor activity against human BT549 cells; type: functional
PC-3 = test: Antitumor activity against human PC3 cells; type: functional
NCI-H522 = test: Antitumor activity against human NCI-H522 cells; type: functional
DU-145 = test: Antitumor activity against human DU145 cells; type: functional
EKVX = test: Antitumor activity against human EKVX cells; type: functional
RPMI-8226 = test: Antitumor activity against human RPMI8226 cells; type: functional
[2] = Antitumor activity against human […] cells; type: functional
HCT-15 = test: Antitumor activity against human HCT15 cells; type: functional
NCI-H226 = test: Antitumor activity against human NCI-H226 cells; type: functional
CAKI-1 = test: Antitumor activity against human CAKI-1 cells; type: functional
Malme-3M = test: Antitumor activity against human MALME-3M cells; type: functional
MOLT-4 = test: Antitumor activity against human MOLT4 cells; type: functional
OVCAR-8 = test: Antitumor activity against human OVCAR8 cells; type: functional
SK-OV-3 = test: Antitumor activity against human SK-OV-3 cells; type: functional
CCRF-CEM [3] = test: Antitumor activity against human CCRF-CEM cells; type: functional
IGROV-1 = test: Antitumor activity against human IGROV1 cells; type: functional
786-0 = test: Antitumor activity against human 786-0 cells; type: functional
HOP-62 = test: Antitumor activity against human HOP62 cells; type: functional
OVCAR-5 = test: Antitumor activity against human OVCAR5 cells; type: functional
SR [4] = test: Antitumor activity against human SR cells; type: functional
HCC 2998 = test: Antitumor activity against human HCC2998 cells; type: functional
UO-31 = test: Antitumor activity against human UO31 cells; type: functional
NCI/ADR-RES = test: Antitumor activity against human NCI/ADR-RES cells; type: functional
SW-620 = test: Antitumor activity against human SW620 cells; type: functional
SF-268 = test: Antitumor activity against human SF268 cells; type: functional
SNB-75 = test: Antitumor activity against human SNB75 cells; type: functional
[5] = Antitumor activity against human NCI-H322 cells; type: functional
[6] = Antitumor activity against human HL60 (TB) cells; type: functional, HL-60(TB); details: HL-60
COLO 205 = test: Antitumor activity against human COLO205 cells; type: functional
UACC-62 = test: Antitumor activity against human UACC62 cells; type: functional
SK-MEL-5 = test: Antitumor activity against human SK-MEL-5 cells; type: functional
HCT-116 = test: Antitumor activity against human HCT116 cells; type: functional
OVCAR-4 = test: Antitumor activity against human OVCAR4 cells; type: functional
K562 = test: Antitumor activity against human K562 cells; type: functional
SN12C = test: Antitumor activity against human SN12C cells; type: functional
MDA-MB-435 = test: Antitumor activity against human MDA-MB-435 cells; type: functional
SR [7] = test: Growth inhibition of human SR cells at 1 uM; type: functional
CCRF-CEM [8] = test: Growth inhibition of huam CCRF-CEM at 1 uM; type: functional; details: Homo sapiens

In the case of CS(=O)(=O)c1ccc([C@H]2O[C@@H](CO)C[C@]2(O)c2ccc(S(C)(=O)=O)cc2)cc1 (relative stereo), the GI50 (UACC-257) is reported as over 100 µM, the GI50 (A498) is reported as over 100 µM and the GI50 (RXF 393) is reported as over 100 µM. For the same compound, the GI50 [1] was over 100 µM, the GI50 (NCI-H23) was over 100 µM and the GI50 (LOX IMVI) was over 100 µM. The GI50 (SK-MEL-28) was over 100 µM, the GI50 (SF-295) was over 100 µM and the GI50 (KM12) was over 100 µM. For the same compound, the GI50 (NCI-H460) was over 100 µM, the GI50 (U-251) was over 100 µM and the GI50 (MCF7) was over 100 µM. The GI50 (OVCAR-3) was over 100 µM, the GI50 (ACHN) was over 100 µM and the GI50 (TK-10) was over 100 µM. For the same compound, the GI50 (HOP-92) was over 100 µM, the GI50 (A549) was over 100 µM and the GI50 (SF-539) was over 100 µM. It also gave a GI50 (HT-29) of over 100 µM, a GI50 (SNB-19) of over 100 µM and a GI50 (BT-549) of over 100 µM. It also gave a GI50 (PC-3) of over 100 µM, a GI50 (NCI-H522) of over 100 µM and a GI50 (DU-145) of over 100 µM. It also gave a GI50 (EKVX) of over 100 µM, a GI50 (RPMI-8226) of over 100 µM and a GI50 [2] of over 100 µM. The GI50 (HCT-15) was over 100 µM, the GI50 (NCI-H226) was over 100 µM and the GI50 (CAKI-1) was over 100 µM. The GI50 (Malme-3M) was over 100 µM, the GI50 (MOLT-4) was over 100 µM and the GI50 (OVCAR-8) was over 100 µM. The GI50 (SK-OV-3) was over 100 µM, the GI50 (CCRF-CEM [3]) was over 100 µM and the GI50 (IGROV-1) was over 100 µM. The GI50 (786-0) was over 100 µM, the GI50 (HOP-62) was over 100 µM and the GI50 (OVCAR-5) was over 100 µM. It also gave a GI50 (SR [4]) of over 100 µM, a GI50 (HCC 2998) of over 100 µM and a GI50 (UO-31) of over 100 µM. It also gave a GI50 (NCI/ADR-RES) of over 100 µM, a GI50 (SW-620) of over 100 µM and a GI50 (SF-268) of over 100 µM. It also gave a GI50 (SNB-75) of over 100 µM, a GI50 [5] of over 100 µM and a GI50 [6] of over 100 µM. For the same compound, the GI50 (COLO 205) was over 100 µM, the GI50 (UACC-62) was over 100 µM and the GI50 (SK-MEL-5) was over 100 µM. The GI50 (HCT-116) was over 100 µM, the GI50 (OVCAR-4) was over 100 µM and the GI50 (K562) was over 100 µM. For the same compound, the GI50 (SN12C) was over 100 µM and the GI50 (MDA-MB-435) was over 100 µM.
In the case of COc1ccc([C@H]2O[C@@H](CO)C[C@]2(O)c2ccc(OC)cc2)cc1 (relative stereo), the GI50 (UACC-257) is reported as over 100 µM, the GI50 (A498) is reported as over 100 µM and the GI50 (RXF 393) is reported as 28.2 µM. The GI50 [1] was 39.8 µM, the GI50 (NCI-H23) was over 100 µM and the GI50 (LOX IMVI) was over 100 µM. For the same compound, the GI50 (SK-MEL-28) was over 100 µM, the inhibition at 1 µM (SR [7]) was 36% and the GI50 (SF-295) was over 100 µM. For the same compound, the GI50 (KM12) was over 100 µM, the GI50 (NCI-H460) was over 100 µM and the GI50 (U-251) was over 100 µM. The GI50 (MCF7) was over 100 µM, the GI50 (OVCAR-3) was over 100 µM and the GI50 (ACHN) was over 100 µM. For the same compound, the GI50 (TK-10) was over 100 µM, the GI50 (HOP-92) was 95.5 µM and the GI50 (A549) was over 100 µM. For the same compound, the GI50 (SF-539) was over 100 µM, the GI50 (HT-29) was over 100 µM and the GI50 (SNB-19) was over 100 µM. It also gave a GI50 (BT-549) of over 100 µM, a GI50 (PC-3) of over 100 µM and a GI50 (NCI-H522) of over 100 µM. It also gave a GI50 (DU-145) of over 100 µM, a GI50 (EKVX) of over 100 µM and a GI50 (RPMI-8226) of over 100 µM. It also gave a GI50 [2] of over 100 µM, a GI50 (HCT-15) of over 100 µM and a GI50 (NCI-H226) of over 100 µM. It also gave a GI50 (CAKI-1) of over 100 µM, a GI50 (Malme-3M) of over 100 µM and a GI50 (MOLT-4) of over 100 µM. The inhibition at 1 µM (CCRF-CEM [8]) was 46%, the GI50 (OVCAR-8) was over 100 µM and the GI50 (SK-OV-3) was over 100 µM. For the same compound, the GI50 (CCRF-CEM [3]) was over 100 µM, the GI50 (IGROV-1) was over 100 µM and the GI50 (786-0) was over 100 µM. The GI50 (HOP-62) was over 100 µM, the GI50 (OVCAR-5) was over 100 µM and the GI50 (SR [4]) was 50.1 µM. The GI50 (HCC 2998) was over 100 µM, the GI50 (UO-31) was over 100 µM and the GI50 (NCI/ADR-RES) was over 100 µM. It also gave a GI50 (SW-620) of over 100 µM, a GI50 (SF-268) of over 100 µM and a GI50 (SNB-75) of over 100 µM. For the same compound, the GI50 [5] was over 100 µM, the GI50 [6] was 38.9 µM and the GI50 (COLO 205) was over 100 µM. It also gave a GI50 (UACC-62) of over 100 µM, a GI50 (SK-MEL-5) of over 100 µM and a GI50 (HCT-116) of over 100 µM. For the same compound, the GI50 (OVCAR-4) was over 100 µM, the GI50 (K562) was over 100 µM and the GI50 (SN12C) was over 100 µM. The GI50 (MDA-MB-435) was over 100 µM.
